Source: patent publication US8618082B2, “Lupeol anti-tumor agent and uses thereof” (Wisconsin Alumni Research Foundation, priority 2004, dated 2013)
Entries after “also recorded” stand apart in the source; their conditions may differ.

Tests used:
[1] = system: Fas receptor, FADD and other death receptors in LNCaP cells; assay: Death receptor mediated apoptotic pathway in LNCaP cells (western blot); format: cell-based, human
Description: FIG. 14 depicts effect of Lupeol treatment on death receptor mediated apoptotic pathway in LNCaP cells: Cells were treated with vehicle (DMSO+alcohol) only or specified concentrations of Lupeol for 48 h, harvested and total cell lysates were prepared. The expression of death receptors including Fas and death adaptor proteins including FADD were determined by western blot analysis. Equal loading was confirmed by stripping immunoblots and reprobing them for β-actin. The immunoblots shown here are representative of three independent experiments with similar results.

[2] = system: CD-1 mouse skin; format: in vivo
Description: FIG. 8. Two stage carcinogenesis tumor data in CD-1 mice: Inhibitory effect of Lupeol on DMBA-initiated and TPA-promoted tumor formation in CD-1 mice: In each group, 20 animals were used. Tumorigenesis was initiated in the animals by a single topical application of 200 nmol DMBA in 0.2 ml vehicle on the dorsal shaved skin, and 1 week later, the tumor growth was promoted with twice-weekly applications of 3.2 nmol TPA in 0.2 ml vehicle. To assess its anti-skin tumor-promoting effect, Lupeol at a dose of 2 mg/animal was applied topically 30 min prior to each TPA application in different groups. Treatment with TPA alone or Lupeol plus TPA was repeated twice weekly up to the termination of the experiments at 28 weeks. Animals in all the groups were watched for any apparent signs of toxicity, such as weight loss or mortality during the entire period of study. Skin tumor formation was recorded weekly, and tumors larger than 1 mm in diameter were included in the cumulative number only if they persisted for 2 weeks or more. The tumor data is represented as the percentage of mice with tumors (a), the number of tumors per mouse (b) and the number of tumors per group (c). The data was analyzed by Wilcoxon rank sum test and χ^2 analysis.
Female CD-1 mice were used in DMBA- and TPA-induced, two-stage skin tumorigenesis protocol as described earlier (Katiyar et al., 1996). The dorsal side of the skin was shaved using electric clippers, and the mice with hair cycles in the resting phase were used for tumor studies. In each group, 20 animals were used. Tumorigenesis was initiated in the animals by a single topical application of 200 nmol DMBA in 0.2 ml vehicle on the dorsal shaved skin, and 1 week later, the tumor growth was promoted with twice-weekly applications of 3.2 nmol TPA in 0.2 ml vehicle. […] Treatment with TPA alone or Lupeol plus TPA was repeated twice weekly up to the termination of the experiments at 28 weeks. Animals in all the groups were watched for any apparent signs of toxicity, such as weight loss or mortality during the entire period of study. Skin tumor formation was recorded weekly, and tumors larger than 1 mm in diameter were included in the cumulative number only if they persisted for 2 weeks or more.
A two-tailed Student's t test was used to assess the statistical significance between the TPA treated and Lupeol+TPA treated groups. A p value<0.05 was considered statistically significant. In tumorigenesis experiments, the statistical significance of difference between TPA and Lupeol+TPA groups was evaluated by the Wilcoxon rank sum test and χ^2 analysis.

[3] = system: LNCaP cells; assay: Apoptosis in LNCaP cells by flow cytometry; format: cell-based, human; conditions: Lupeol 5-30 μM
Description: FIG. 11 depicts quantitative representation of Lupeol induced apoptosis in LNCaP cells as assessed by flow cytometry. Cells were treated with Lupeol (5-30 μM). Cells showing fluorescence above that of control population, as indicated by the line in each histogram, are considered as apoptotic cells. The images shown here are representative of independent experiments with similar results. The values shown inside each graph indicates percent apoptotic cells.

[4] = Lupeol 2 mg/animal, 28 weeks, vs non-Lupeol treated group

`C=C(C)[C@@H]1CC[C@]2(C)CC[C@]3(C)[C@H](CC[C@@H]4[C@@]5(C)CC[C@H](O)C(C)(C)[C@@H]5CC[C@]43C)[C@@H]12` [Lupeol, Lup-20(29)-en-3β-ol] was tested, and the “expression of cell death-inducing receptor ligands FAS-L, APO-3L and TRAIL” value [1] was “no significant change”, the “expression/activation of other death receptors (TRADD, TNFR-1, APO-3, DR-4/5)” value [1] was “no change in the protein expression; also recorded: No other death receptor such as TNFR1, DR4/5 were activated” and the “expression of FADD protein” value ([1]; 48 h) was “increase in the expression of FADD protein; also recorded: induces the expression”. For the same compound, the “expression of FAS receptor protein” value ([1]; 48 h) was “significant increase; also recorded: induces the expression”, the “percentage of mice with skin tumors” value ([2]; Lupeol 2 mg/animal topical 30 min prior to each TPA, 28 weeks, non-Lupeol group 100%) was 53% and the “total number of tumors per group” value ([2]; Lupeol 2 mg/animal, 28 weeks, 20 animals, non-Lupeol group 125) was 33 tumors. The “inhibition of number of tumors per mouse” value [2, 4] was 74%, the “inhibition of total number of tumors” value [2, 4] was 74% and the “number of tumors per mouse” value ([2]; Lupeol 2 mg/animal, 28 weeks, non-Lupeol group 6.25) was 1.65 tumors per mouse. For the same compound, the “latency period of tumor formation” value ([2]; Lupeol 2 mg/animal, p<0.05, χ2 test) was “significantly increased”, the body weight gain ([2]; Lupeol treatment for 28 weeks, data not shown) was “did not significantly affect” and the signs of toxicity ([2]; mouse, in vivo) was “none of the treated mice exhibited any signs of toxicity”. The “induction of apoptosis in LNCaP cells” value [3] was “due to apoptosis; also recorded: inducing apoptosis”.
